From US20230067593A1, “NANOFORMULATIONS OF METHYL {4,6-DIAMINO-2-[5-FLUORO-1-(2-FLUOROBENZYL)-1H-PYRAZOLO[3,4-B]PYRIDIN-3 -YL]PYRIMIDIN-5-YL} CARBAMATE” (ADVERIO PHARMA GMBH, priority 2020, published 2023)

Test: Screening experiments of nanosuspensions with different stabilizers (wet bead milling, planetary mill)
Type: physicochemical
Details: wet bead milling process according to Examples 1-3
Protocol: Most of the screening experiments of Example 1 were done in a planetary ball mill (PBM) of type Pulverisette 5. For sample preparation, the micronized compound of the formula (I) was predispersed in aqueous polymer surfactant solution and transferred into the grinding chamber (PET 23ml) which was filled with milling beads. The water contained in the solution was used as dispersing agent. As grinding media (0.4 - 0.6 mm) the Silibeads® zirconium oxide (yttrium stabilized) with a bulk density of 3.9 kg/l from Sigmund Lindner (Germany) were used. The milling beads fill level was 60% of the grinding chamber volume. Care was taken not to leave any air inclusions in the grinding chamber, as this would have a negative effect on the grinding process. The grinding time was 90 minutes at 400 rotations per minute. Four grinding chambers could be fed into the PBM per grinding operation. Thus, after separation of the grinding media, about 40 - 45 g suspension per grinding process could be produced.
The compound of formula (I) in crystalline form of modification I was produced according to example 13, method E of WO 2013/076168. Before nanomilling, the compound of formula (I) in crystalline form of modification I was micronized. For the screening experiments many different formulations were tested. For these experiments the duration of milling was 60 min. […]

d50 after milling: < 200 nm
Structure (SMILES): COC(=O)Nc1c(N)nc(-c2nn(Cc3ccccc3F)c3ncc(F)cc23)nc1N [Vericiguat, methyl {4,6-diamino-2-[5-fluoro-1-(2-fluorobenzyl)-1H-pyrazolo[3,4-b]pyridin-3-yl]pyrimidin-5-yl}carbamate]
